Measurements reported in patent US20140234373A1, “Methods of Promoting Immune Tolerance” (Georgia Regents University, priority 2011, published 2014).

Assays:
OT-1 T cells = test: DC suppression assay (splenic DCs from treated mice with OT-1 T cells); type: in vivo; conditions: DCs from pDNA/PEI-treated B6 mice, 1MT 100 μM
Experimental: MACS-enriched splenic DCs (CD11c+) and Tregs (CD4+CD25+) were isolated according to manufacturer's instructions, except that cells were incubated with beads at RT (Magnetic Cell Separation Technology (MACS)—Miltenyi Biotec Inc., Auburn, Calif.). T cell stimulatory activity of DCs was assessed by culturing graded numbers of DCs (X-Y) with responder (MACS-enriched) CD8+ T cells from OT-1 (+SIINFEKL peptide) (SEQ ID NO:1) TCR-Tg mice+/−1MT as described (11). Suppressor activity of splenic Tregs was assessed by culturing graded numbers of Tregs with responder A1 (H-Y-specific) T cells, APCs (female CBA) and male (H-Y) peptide; a cocktail of anti-PD-1, anti-PD-L1, and anti-PD-L2 mAbs was added to some cultures to block PD-1-PD-L interactions as described (Baban, et al., J Immunol, 183:2475-2483 (2009), Sharma, et al., J Clin Invest 117:2570-2582 (2007)).
Assays to detect IDO-dependent T cell regulatory phenotypes in splenic DCs were performed as previously described. Briefly, MACS enriched (CD11c^+) spleen cells were cultured for 72 hours with MACS-enriched CD8α^+ T cells from OT-1 TCR transgenic mice and OVA257-264 peptide (SIINFEKL (SEQ ID NO:1)), 100 nM). Proliferation was assessed by adding 1 μCi methyl-[^3H]-thymidine for the final 6 hours and quantified using a BetaPlate counter (Wallac). […] Proliferation was assessed as described above. […]

[1] = system: B6 mice (mBSA-induced arthritis); test: mBSA-induced arthritis model; type: in vivo; conditions: local joint inflammation
Experimental: B6 mice were sensitized with methylated BSA (mBSA, s/c, […] in CFA (day 0). Booster injections of mBSA in IFA were given on days 7 and 14, and arthritis was induced on day 21 by intra-articular injection of mBSA (10 μg in PBS, challenge).
Arthritis severity was evaluated by measuring joint swelling, neutrophil infiltration, and histological analysis as described (Lemos, et al., Proc Natl Acad Sci USA, 106:5954-5959 (2009)). In brief, joint swelling was assessed using a vernier caliper, and was expressed as the increase in diameter (mm) relative to non-inflamed joints in each mouse at experimental starting points. Neutrophils were counted after harvesting cells from articular cavities 24 hours after mBSA challenge. Results were presented as neutrophil numbers per cavity (mean±SEM). Arthritis was analyzed histologically 28 days after initial immunization (experimental endpoints). Knee joints were dissected and fixed in 10% buffered formalin for 3 days. […] Sections were examined by two independent observers and graded blindly using a semi-quantitative score from 0 to 3 (0, no; 1, mild; 2, moderate; 3, severe alterations) for the extent of (a) synovial lining layer hyperplasia and (b) infiltration of leukocytes into synovial membrane/joint space (as measures of joint inflammation); and (c) pannus formation and necrosis/erosion of cartilage (as a measure of joint destruction). […]

[2] = system: OVA-specific OT-2 T cells; test: In vivo suppression assay, OT-2 T cell responses to OVA immunization; conditions: oral 1MT with pDNA/PEI, OVA-immunized B6 mice
Experimental: CFSE-labeled OVA-specific T cells from OT-1 or OT-2 donor mice were injected (i/v) into recipient B6 mice at least 1 day before immunization. CFSE labeling was performed by incubating MACS-enriched splenic CD8+ (OT-1) or CD4+ (OT-2) T cells at ˜10×10^6 cells/ml in PBS with 2 μM CFSE at 37° C. for 15 mins Cells were washed in PBS and injected into recipients (i/v). Mice were then immunized with […] erythrocyte-free spleen cells from Act-mOVA transgenic mice (s/c), and treated with pDNA/PEI nanoparticles and oral 1MT as indicated in FIG. 3.
Cells were stained with the following antibodies; anti-CD4 (clone RM4-5), anti-Thy1.1 (clone OX-7), anti-NK1.1 (clone PK136), anti-CD49b (clone DX5), anti-IFNγ (clone XMG1.2) from Pharmingen-BD-Biosciences (San Jose, Calif.), and analyzed using a LSR2 flow cytometer (Becton-Dickinson). CFSE was purchased from Invitrogen. For detecting intracellular IFNγ, cells were surface stained with anti-NK1.1 and anti-DX5, fixed with cytofix/cytoperm, washed with Perm/Wash solution (BD Bioscience) and stained with anti-IFNγ. Some cells were incubated in RPMI with 1 μM of brefeldin (BD Bioscience) for 3 hrs. with no further stimulations to accumulate cytokine before staining. For detecting IFNγ in OT-2 T cells, dLN cells were stimulated with PMA/ionomycin for 2 hrs. with brefeldin. […]

NODf mice = test: Type I diabetes onset in NOD female mice; type: in vivo; conditions: oral 1MT, no other treatment
Text: IDO slows T1D progression in a subset of NODf mice (FIG. 10 (-▴-)), as IDO inhibitor accelerated disease onset in at least 50% of NOD female mice.

For `Cn1cc(C[C@@H](N)C(=O)O)c2ccccc21` [1MT, 1-methyl-[D]-tryptophan], the “effect of adding 1MT on T cell responses” value (OT-1 T cells) was “restored robust T cell responses”, the “effect of oral 1MT on ameliorative effects of pAT/PEI therapy” value [1] was “reversed” and the “effect of IDO inhibitor on suppressive effects of DNP treatment” value [2] was “abrogated”. The “mice that developed diabetes faster than control” value (NODf mice) was 50% and the “mice that developed diabetes faster than control” value (NODf mice; listed as IDO inhibitor) was “at least 50%”.
